{"source": "paper PMC5995273", "about": "“Identification and Characterization of Genes Involved in Benzylisoquinoline Alkaloid Biosynthesis in Coptis Species” (Frontiers in Plant Science, 2018)", "molecular_target": "T1, Ct7OMT (Coptis teeta, UniProt A0A2Z5FRT2)", "T1 construct": "gene 7OMT", "T1 sequence (A0A2Z5FRT2 entry or part of it)": "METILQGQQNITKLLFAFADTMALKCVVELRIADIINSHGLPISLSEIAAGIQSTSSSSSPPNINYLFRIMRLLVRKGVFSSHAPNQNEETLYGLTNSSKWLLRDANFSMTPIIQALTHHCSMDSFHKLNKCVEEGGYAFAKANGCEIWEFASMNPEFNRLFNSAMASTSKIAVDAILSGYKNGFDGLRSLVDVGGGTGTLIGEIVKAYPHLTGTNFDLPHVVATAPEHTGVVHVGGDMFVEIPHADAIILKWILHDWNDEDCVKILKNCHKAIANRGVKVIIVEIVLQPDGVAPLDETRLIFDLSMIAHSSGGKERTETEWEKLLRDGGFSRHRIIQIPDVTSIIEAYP", "experiment": "UPLC-QTOF-MS/MS product detection", "assay_type": "biochemical", "details": "SAM 0.1 mM, substrate 100 uM, pH 8.0, 30 C, 1 h", "data": [{"molecule": "Oc1ccc(C[C@@H]2NCCc3cc(O)c(O)cc32)cc1", "note": "[compound 1, (S)-norcoclaurine]", "values": [{"measurement": "UPLC-QTOF-MS/MS product detection", "value": "Ct7OMT also O-methylates (S)-norcoclaurine at C6, yielding (S)-coclaurine"}]}]}
